For one molecule, IC50 and inhibition results are on record in publication PMC8657793, “Synthesis, In Vitro and In Silico Anticancer Activity of New 4-Methylbenzamide Derivatives Containing 2,6-Substituted Purines as Potential Protein Kinases Inhibitors” (International Journal of Molecular Sciences, 2021).

Usually IC50 stands for the concentration that gives 50% inhibition. Lower therefore signals inhibition by little substance. What is called inhibition is the drop in the measured response relative to a control, in per cent. Low readings indicate a weak effect, high ones a strong effect.

Assay type in all cases: cell-based
For assay [1], the system named is HL-60 (promyelocytic leukemia). In words: MTT anti-proliferative assay, HL-60. Conditions: Homo sapiens, 48 h. How it is done:
(§1) For the in vitro assays, a stock solution (1% DMSO in the appropriate buffer with the tested compound diluted under sonication) was prepared from which several dilutions were made with the appropriate buffer.
(§2) Human cell lines were obtained from the Institute of Cytology, Russian Academy of Sciences. […] Plates were incubated under standard conditions for 48 h.
For orientation: Tetrazolium dyes change colour on reduction, which living cells bring about.

For assay [2], the system named is OKP-GS (renal cell carcinoma). Kind of assay: MTT anti-proliferative assay, OKP-GS. Conditions: Homo sapiens, 48 h. How it is done: (§3) To determine the selectivity of the synthesized compounds 7–16 toward various cancer cells and normal human cells, the anti-proliferative activity against K562 (chronic myelogenous leukemia), HL-60 (promyelocytic leukemia), MCF-7 (breast adenocarcinoma), HeLa (cervix carcinoma), HepG2 (human liver cancer), A549 (lung carcinoma), OKP-GS (renal cell carcinoma), and normal cells RPMI 1788 (B lymphocyte, the human cell line) was investigated.
(§4) Each in vitro experiment was performed at least in triplicate and the standard deviation of absorbance was less than 10% of the mean. For the in vitro assays, a stock solution (1% DMSO in the appropriate buffer with the tested compound diluted under sonication) was prepared from which several dilutions were made with the appropriate buffer.
(§5) Human cell lines were obtained from the Institute of Cytology, Russian Academy of Sciences. The cell lines studied were maintained in RPMI 1640 medium (AppliChem, Darmstadt, Germany) supplemented with 20% (HL-60, RPMI 1788) fetal calf serum (HyClone, Cramlington, UK), in DMEM (A 549) and Eagle’s MEM (AppliChem) (MCF7, HeLa) with 10% fetal calf serum (HyClone). Cells were cultivated at 37 °C in a humidified atmosphere of 5% CO2. Cellular sensitivities to synthesized compounds and standards were measured with the MTT assay. Cells were plated in triplicate in 96-well plates (10^5 cells/well for suspended cell cultures and 5 × 10^3 cells/well for monolayer cultures); on the same day (suspended cell cultures) or on the following day (monolayer cultures), compounds were added at the appropriate dilutions. Anti-proliferative activity was studied at concentrations 0.1–50.0 µM. The reference drugs were imatinib, sorafenib and nilotinib. Plates were incubated under standard conditions for 48 h. Thereafter, 10 μL MTT (Sigma) in phosphate-buffered saline (5 mg/mL) was added. The plates were incubated for an additional 4 h and 150 μL dimethylsulphoxide (DMSO) was added to dissolve the formazan crystals. The optical density was read on a HALO MPR-95 Microplate Reader (Dynamica Scientific Ltd., Melbourne, Victoria, Australia) at 570 nm. The antiproliferative effects were taken as degrees of inhibition of tumor cells (%). The average of three parallel measurements was calculated for each concentration of test compound. The degree of cell growth suppression was plotted as a function of the logarithm of the concentration. The half maximal inhibitory concentration (IC50) was determined graphically for active compounds.

Assay [3] has as its system K562 (chronic myelogenous leukemia). Kind of assay: MTT anti-proliferative assay, K562. The settings on record: Homo sapiens, 48 h. How it is done: as §1, §2
Assay [4] deals with RPMI 1788 (B lymphocyte, normal human lymphoblastoid cells). Kind of assay: MTT assay on normal cells RPMI 1788. On the procedure:
as §3, §4
as §5, with “Anti-proliferative activity was studied at concentrations 0.1–50.0 µM.” left out

In the case of `Cc1cn(-c2cc(NC(=O)c3ccc(C)c(Nc4nccc(-c5cccnc5)n4)c3)cc(C(F)(F)F)c2)cn1` [Nilotinib, nilotinib, reference compound], the IC50 in assay [1] was 55 µM; in assay [2], 55 µM; in assay [3], less than 0.1 µM. The same molecule came in with an inhibition at 100 µM in assay [4] of 71%.
